Assay results from publication PMC12177781, “Chalcogen Derivatives for the Treatment of African Trypanosomiasis: Biological Evaluation of Thio- and Seleno-Semicarbazones and Their Azole Derivatives” (ACS Omega, 2025).
Several values for one entry are separate records, joined by “and”; a condition that tells them apart may be missing. Equal entries are not always repeated. Where two headings read alike, the source gives them in different places.

Key:
HEK293 cells = test: HEK293 cytotoxicity, CellTiter-Glo, 48 h; details: for inhibition at 10 µM: Homo sapiens, HEK293, read-out: HEK293 inhibition (%)
[1] = target: T. brucei cathepsin L-like protease (TbrCATL) (Trypanosoma brucei rhodesiense, UniProt Q95PM0); test: TbrCATL inhibition assay, Z-FR-AMC substrate; format: biochemical; details: for IC50: mean ± SD, two experiments in triplicate (n = 6); for SI TbrCATL: IC50 hCatL/IC50 TbrCATL
Chain of T. brucei cathepsin L-like protease (TbrCATL) (Q95PM0 1-450): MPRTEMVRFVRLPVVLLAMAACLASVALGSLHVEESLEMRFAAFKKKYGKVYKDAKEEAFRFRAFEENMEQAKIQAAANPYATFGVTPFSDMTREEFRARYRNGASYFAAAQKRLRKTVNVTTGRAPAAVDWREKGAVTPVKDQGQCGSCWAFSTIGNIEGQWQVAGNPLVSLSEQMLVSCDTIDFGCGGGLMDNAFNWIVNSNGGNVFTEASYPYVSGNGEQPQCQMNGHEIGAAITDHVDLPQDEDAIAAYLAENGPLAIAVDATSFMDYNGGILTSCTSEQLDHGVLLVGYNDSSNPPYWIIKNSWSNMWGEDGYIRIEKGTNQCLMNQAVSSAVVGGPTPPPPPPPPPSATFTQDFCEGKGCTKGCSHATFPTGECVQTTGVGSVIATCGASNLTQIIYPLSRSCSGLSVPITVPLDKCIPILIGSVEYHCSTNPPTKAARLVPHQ
Method: (§1) All experiments were performed in a 384-well black microplate, using a Synergy HTX (Biotek) plate reader at 25 °C with absorption/emission wavelengths of 360/460 nm. Assays were performed in triplicate wells and DMSO was used as a vehicle control. Enzyme activity was measured and normalized to DMSO controls, and the inhibitor E-64 (10 μM) was used as a positive control for all assays. Experiments were performed in triplicate, with at least two independent assays (n = 6 data points). IC50 values were determined through nonlinear regression. The data obtained were analyzed using GraphPad Prism 9.0 (GraphPad Software, La Jolla, California, US).
The screening assay was performed using 0.5 nM of TbrCATL diluted in 0.1 M sodium acetate, 1 mM dithiothreitol (DTT), and 0.01% Triton X-100, pH 5.5. TbrCATL was expressed and purified as described. Enzyme the compound (10 μM), were incubated for 10 min at room temperature. Then the substrate, Z-Phe-Arg-amidomethylcoumarin (Z-FR-AMC; Sigma-Aldrich, C9521), was added (30 μL diluted in the same assay buffer) to yield a final concentration of 2.5 μM and the assay allowed to proceed for 10 min. […] For those compounds inhibiting enzyme activity by >85%, DR assays were performed over 15 2-fold serial dilutions starting at 0.5 or 20 μM.

in vitro [2] = details: human, CC50 HEK293 (μM)
HepG2 cells = test: HepG2 cytotoxicity, CellTiter-Glo, 48 h; details: for inhibition at 10 µM: Homo sapiens, HepG2, read-out: HepG2 inhibition (%)
[3] = target: T1, human cathepsin L (hCatL) (Homo sapiens, UniProt P07711); test: hCatL inhibition assay, Z-FR-AMC substrate; format: biochemical; details: mean ± SD, two experiments in triplicate (n = 6)
T1 construct: purchased R&D Systems 952-CY
T1 sequence (P07711 114-333): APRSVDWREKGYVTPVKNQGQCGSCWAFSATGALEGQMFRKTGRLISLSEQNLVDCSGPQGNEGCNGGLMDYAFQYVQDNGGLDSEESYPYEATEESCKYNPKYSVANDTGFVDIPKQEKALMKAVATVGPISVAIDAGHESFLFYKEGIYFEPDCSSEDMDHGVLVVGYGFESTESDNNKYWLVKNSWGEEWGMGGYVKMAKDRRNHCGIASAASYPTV
Method: as §1
Recombinant hCatL was purchased from R&D Systems (952-CY) and activated according to the manufacturers protocol. This enzyme, hCatL, is used to test compounds’ selectivity because it is the human homologue of TbrCATL. The assay was modified from, using 25 pM of the enzyme diluted in 40 mM sodium acetate, 5 mM DTT, 100 mM NaCl, 1 mM EDTA and 0.01% Triton X-100, pH 5.5. Enzyme and compound (10 μM), were incubated for 30 min at room temperature. Then Z-FR-AMC was added (30 μL diluted in the same assay buffer) to yield a final concentration of 25 μM and the assay allowed to proceed for 10 min. DR assays were performed over 15 2-fold serial dilutions starting at 0.5 or 20 μM.

in vitro [4] = details: human, CC50 HepG2 (μM)
[5] = DPPH radical scavenging (antioxidant) assay; details: after 2 h, mean ± SEM
[6] = tested on: T. brucei brucei Lister 427; test: T. b. brucei Lister 427 bloodstream-form growth inhibition, SYBR Green viability assay, 72 h; format: cell-based, Trypanosoma brucei brucei; details: for EC50 / inhibition at 10 µM: Trypanosoma brucei; for EC50: three independent experiments in duplicate (n = 6) ± SD, read-out: EC50 T. brucei; for T. brucei inhibition (%) / inhibition at 10 µM: growth inhibition at 10 µM, ± SD
cruzain (Cz) = details: cited from earlier work
C2C12 cells = details: read-out: Toxicity CC50 C2C12 cells; cited from earlier work
[7] = HEK293 cytotoxicity, CellTiter-Glo, 48 h; details: human, HEK293 cells
[8] = HepG2 cytotoxicity, CellTiter-Glo, 48 h; details: human, HepG2 cells
[9] = read-out: TbrCATL inhibition (%), at 10 μM
[10] = growth inhibition at 10 µM, ± SD

With `C/C(=N\NC(N)=[Se])c1ccc(C)cc1` [SeO1] the inhibition at 10 µM (HEK293 cells) was 100 ± 1%, the IC50 ([1]; IC50 TbrCATL (nM)) was 17.9 ± 3.62 nM and the “SI TbrCATL” value [1] was 5. The “TbrCATL inhibition (%)” value ([1]; at 10 μM) was 97.08%, the inhibition at 10 µM [1, 9] was > 85% and the CC50 (in vitro [2]) was 4.27 ± 0.22 µM. The inhibition at 10 µM (HepG2 cells) was 80 ± 1%, the IC50 [3] was 84.5 ± 17 nM and the CC50 (in vitro [4]) was 4.17 ± 0.6 µM. For the same molecule, the “% inhibited DPPH” value ([5]; 0.015 mg/ml) was 45.67 ± 9.56%, the “% inhibited DPPH” value ([5]; 0.03 mg/ml) was 78.00 ± 1.16% and the “% inhibited DPPH” value ([5]; 0.06 mg/ml) was 77.33 ± 1.76%. The EC50 [6] was 980 ± 120 nM, the “T. brucei inhibition (%)” value ([6]; 10 µM) was 100 ± 1% and the “T. brucei inhibition (%)” value ([6]; listed as Se O1, 10 µM) was > 70%.

In the case of `C/C(=N\NC(N)=[Se])c1cccc([N+](=O)[O-])c1` [SeO5], the inhibition at 10 µM (HEK293 cells) is reported as 100%, the IC50 ([1]; IC50 TbrCATL (nM)) is reported as 0.51 nM and 0.3 nM and the “SI TbrCATL” value [1] is reported as 2. The “TbrCATL inhibition (%)” value ([1]; at 10 μM) was 101.47%, the inhibition at 10 µM [1, 9] was > 85% and the CC50 (in vitro [2]) was 2.29 ± 0.26 µM. For the same molecule, the inhibition at 10 µM (HepG2 cells) was 85%, the IC50 [3] was 0.51 ± 0.08 nM and the IC50 (cruzain (Cz)) was 0.91 ± 0.18 nM. The CC50 (in vitro [4]) was 5.54 ± 1.47 µM, the “% inhibited DPPH” value ([5]; 0.015 mg/ml) was 22.00 ± 17.67% and the “% inhibited DPPH” value ([5]; 0.03 mg/ml) was 63.33 ± 6.89%. For the same molecule, the “% inhibited DPPH” value ([5]; 0.06 mg/ml) was 75.67 ± 1.67%, the EC50 [6] was 5830 ± 720 nM and the “T. brucei inhibition (%)” value ([6]; 10 µM) was 100 ± 1%. The “T. brucei inhibition (%)” value ([6]; listed as Se O5, 10 µM) was > 70% and the CC50 (C2C12 cells) was > 10000 nM.

For `C/C(=N\Nc1nc(C)c[se]1)c1ccc(C)cc1` [SeC1], the inhibition at 10 µM (HEK293 cells) was 77 ± 2%, the “TbrCATL inhibition (%)” value ([1]; at 10 μM) was 51.07% and the “TbrCATL inhibition (%)” value ([1]; at 10 μM, listed as Se C1, 10 µM) was ≤ 85%. It also gave a CC50 (in vitro [2]) of 12 ± 4.94 µM, an inhibition at 10 µM (HepG2 cells) of 65 ± 9% and a CC50 (in vitro [4]) of 11 ± 0.88 µM. For the same molecule, the “% inhibited DPPH” value ([5]; 0.015 mg/ml) was 71.67 ± 2.85%, the “% inhibited DPPH” value ([5]; 0.03 mg/ml) was 71.67 ± 2.40% and the “% inhibited DPPH” value ([5]; 0.06 mg/ml) was 72.33 ± 2.33%. For the same molecule, the inhibition at 10 µM [6] was 72 ± 6%, the EC50 [6] was 9800 ± 630 nM and the “T. brucei inhibition (%)” value ([6]; 10 µM) was > 70%.

In the case of `C/C(=N\Nc1nc(C)c[se]1)C12CC3CC(CC(C3)C1)C2` [SeC11], the “HEK293 inhibition (%)” value (HEK293 cells; [10]) is reported as 64 ± 10%, the “HepG2 inhibition (%)” value (HepG2 cells; [10]) is reported as 66 ± 2% and the “T. brucei inhibition (%)” value [6] is reported as 37 ± 0%.

In the case of `C/C(=N\NC(N)=S)c1ccc(Br)cc1` [SO3], the inhibition at 10 µM (HEK293 cells) is reported as 76 ± 2%, the “SI TbrCATL” value [1] is reported as 19 and the “TbrCATL inhibition (%)” value ([1]; at 10 μM) is reported as 95.54%. For the same molecule, the IC50 ([1]; read-out: IC50 TbrCATL) was 7.33 ± 0.27 nM, the inhibition at 10 µM [1, 9] was > 85% and the inhibition at 10 µM (HepG2 cells) was 65 ± 4%. The IC50 [3] was 136 ± 19.9 nM, the “% inhibited DPPH” value ([5]; 0.06 mg/ml) was 29.33 ± 24.77% and the inhibition at 10 µM [6] was 28 ± 4%.

Molecule `CC(C)C[C@H](NC(=O)[C@H](Cc1ccccc1)NC(=O)c1cnccn1)B(O)O` [Bortezomib, reference compound] has a CC50 at 48 h [7] of 15 ± 2 nM, an inhibition at 10 µM (HEK293 cells) of 100 ± 2% and an inhibition at 10 µM (HepG2 cells) of 100 ± 1%. For the same molecule, the CC50 at 48 h [8] was 15 ± 3 nM.

With `C/C(=N\NC(N)=S)c1cccc([N+](=O)[O-])c1` [SO5] the inhibition at 10 µM (HEK293 cells) was 14 ± 9%, the “SI TbrCATL” value [1] was 4 and the “TbrCATL inhibition (%)” value ([1]; at 10 μM) was 100.00%. The IC50 ([1]; read-out: IC50 TbrCATL) was 5.83 ± 0.35 nM, the inhibition at 10 µM [1, 9] was > 85% and the inhibition at 10 µM (HepG2 cells) was 39 ± 9%. For the same molecule, the IC50 [3] was 20.7 ± 4.36 nM, the “% inhibited DPPH” value ([5]; 0.06 mg/ml) was 23.33 ± 19.46% and the inhibition at 10 µM [6] was 31 ± 5%.

Molecule `C/C(=N\Nc1nc(C)cs1)c1ccc(C)cc1` [SC1] has an inhibition at 10 µM (HEK293 cells) of 24 ± 7%, an inhibition at 10 µM ([1]; at 10 μM, read-out: TbrCATL inhibition (%)) of 32.9% and an inhibition at 10 µM (HepG2 cells) of 4 ± 15%. The “% inhibited DPPH” value ([5]; 0.015 mg/ml) was 55.00 ± 1.53%, the “% inhibited DPPH” value ([5]; 0.03 mg/ml) was 54.33 ± 1.86% and the “% inhibited DPPH” value ([5]; 0.06 mg/ml) was 60.00 ± 4.16%. The inhibition at 10 µM [6] was 30 ± 6%.

For `C/C(=N\Nc1nc(C)cs1)c1cccc([N+](=O)[O-])c1` [SC5], the inhibition at 10 µM (HEK293 cells) was 30 ± 3%, the “SI TbrCATL” value [1] was 49 and the “TbrCATL inhibition (%)” value ([1]; at 10 μM) was 87.70%. For the same molecule, the IC50 ([1]; read-out: IC50 TbrCATL) was 82.6 ± 4.05 nM, the inhibition at 10 µM [1, 9] was > 85% and the inhibition at 10 µM (HepG2 cells) was 17 ± 2%. The IC50 [3] was 4070 ± 383 nM, the “% inhibited DPPH” value ([5]; 0.015 mg/ml) was 66.33 ± 1.86% and the “% inhibited DPPH” value ([5]; 0.03 mg/ml) was 68.67 ± 2.03%. For the same molecule, the “% inhibited DPPH” value ([5]; 0.06 mg/ml) was 66.67 ± 1.86% and the inhibition at 10 µM [6] was 40 ± 8%.
